Calls of active or inactive are those of the source. The rule behind the calls is not given here.

For one test, the system named is NCI-H520. Nature of the test: Induction of apoptosis in human NCI-H520 cells assessed as decrease in MCL-1 protein expression at 5 to 10 uM by Western blot analysis. It is filed as functional, cell-based. The conditions noted are these: dose 5-10 µM.
For test [1], the system named is NCI-H1703. The test can be described thus: Induction of apoptosis in human NCI-H1703 cells assessed as decrease in Bcl-XL protein expression at […] by measuring fold change by Western blot analysis relative to control. In kind it is functional. The conditions noted are these: dose 7.5 µM.
Test [2] deals with NCI-H1703. The test can be described thus: Induction of apoptosis in human NCI-H1703 cells assessed as viable cells at […] measured after 72 hrs by PI/Annexin-V staining based flow cytometry analysis (reference value: 92.7% ). The note with it: dose 7.5 µM, read-out: Activity. It is filed as functional.

On to `Cc1cc(CNCCCCCCCCCCC(=O)N[C@H](C(=O)N2C[C@H](O)C[C@H]2C(=O)N[C@@H](C)c2ccc(-c3scnc3C)cc2)C(C)(C)C)cc(C)c1-c1ncn(C)c1-c1ccnc2cc(F)ccc12`, for which, in the test with NCI-H520, the result was Active. In addition, the “fold change (FC)” value in the test with NCI-H1703 [1] came out at 0.67. Moreover, in the test on NCI-H1703 [2], the viability at […] was determined as 66.7%.

(Values after ChEMBL document CHEMBL5338706, “Discovery of a potent and selective proteolysis targeting chimera (PROTAC) degrader of NSD3 histone methyltransferase” (Eur J Med Chem, 2022).)
